In PubChem BioAssay (NCI) one finds TGI and GI50 data, which are given here for eight molecules.

Test systems include NCI-H226 lung; HL-60(TB) leukemia; MOLT-4 leukemia; UACC-257 melanoma; HOP-92 NSCLC; SK-MEL-2 melanoma; UACC-62 melanoma; 786-0 renal; HOP-62 NSCLC; SK-MEL-5 melanoma.
What all share (assay): inhibition of tumour cell growth, NCI panel, 48 h

“And” between values parts separate entries of the source, which are not always exact repeats. Equal entries are not always repeated.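 Five compound concentrations were applied to cells in 96-well plates for 48 hours; endpoints were derived by simple linear interpolation of the resulting dose-response curve. The concentration for 50% growth inhibition is given as GI50. TGI: total growth inhibition.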

Regarding `Cn1c(=O)nc2n(-c3ccc(Cl)cc3)c3ccc(Cl)cc3nc-2c1=O`, the TGI amounted to 27.9 µM in the assay with NCI-H226 lung; 18.9 µM with HL-60(TB) leukemia; 65.7 µM in the assay on MOLT-4 leukemia; 14.5 µM in the assay on UACC-257 melanoma; 25.1 µM with HOP-92 NSCLC; 16.9 µM with SK-MEL-2 melanoma. Also, the TGI stood at 3.09 µM in the assay on UACC-62 melanoma, 54.7 µM in the assay on 786-0 renal, 49.5 µM with HOP-62 NSCLC and 2.37 µM in the assay on SK-MEL-5 melanoma.

`C=C1C(=O)O[C@H]2[C@H]1CC/C(COC(=O)c1cc3cc(F)ccc3[nH]1)=C\CC[C@@]1(C)O[C@@H]21`: the GI50 in the assay with NCI-H226 lung is 1.76 µM; with HL-60(TB) leukemia, 2.07 µM; with MOLT-4 leukemia it was 2.26 µM; in the assay with UACC-257 melanoma, 2.28 µM; in the assay with HOP-92 NSCLC it was 1.38 µM; in the assay with SK-MEL-2 melanoma, 1.95 µM. The GI50 with UACC-62 melanoma is 1.89 µM; in the assay with 786-0 renal, 1.78 µM; in the assay on HOP-62 NSCLC, 2.92 µM; in the assay with SK-MEL-5 melanoma it was 1.85 µM. Besides, the TGI with NCI-H226 lung is 3.52 µM; in the assay with HL-60(TB) leukemia it was 9.27 µM; in the assay with MOLT-4 leukemia, 9.23 µM; with UACC-257 melanoma, 4.26 µM; in the assay on HOP-92 NSCLC it was 3.21 µM; with SK-MEL-2 melanoma, 4.27 µM. Also, the TGI in the assay with UACC-62 melanoma came out at 3.79 µM; in the assay with 786-0 renal, 3.75 µM; with HOP-62 NSCLC, 14.9 µM; in the assay on SK-MEL-5 melanoma, 3.84 µM.

Regarding `COc1ccc2nc(N/N=C(\C)c3ccccn3)cc(C)c2c1`, the GI50 is 0.222 µM in the assay with NCI-H226 lung; 0.384 µM in the assay on HL-60(TB) leukemia; 0.131 µM in the assay with MOLT-4 leukemia; 0.276 µM with UACC-257 melanoma; 0.169 µM with HOP-92 NSCLC; 0.174 µM in the assay on SK-MEL-2 melanoma. The GI50 with UACC-62 melanoma was 0.275 µM; in the assay on 786-0 renal, 0.284 µM; with HOP-62 NSCLC it was 0.259 µM; in the assay with SK-MEL-5 melanoma, 0.244 µM. For the same molecule, the TGI in the assay with NCI-H226 lung worked out at 1 µM; in the assay on HL-60(TB) leukemia, 7.01 µM; in the assay on MOLT-4 leukemia, 0.488 µM; in the assay with UACC-257 melanoma, 1.09 µM; in the assay with HOP-92 NSCLC it was 2.55 µM; with SK-MEL-2 melanoma, 0.973 µM. In addition, the TGI in the assay on UACC-62 melanoma amounted to 1.01 µM; with 786-0 renal, 1.21 µM; in the assay with HOP-62 NSCLC, 1.11 µM; with SK-MEL-5 melanoma, 1.12 µM.

Regarding `C=CCn1c2c(c3ccccc3c1=O)C(=O)c1ccccc1-2`, the TGI is over 100 µM in the assay on NCI-H226 lung; over 100 µM in the assay with HL-60(TB) leukemia; 16.8 µM in the assay on MOLT-4 leukemia; over 100 µM with UACC-257 melanoma; over 100 µM in the assay with HOP-92 NSCLC; over 100 µM in the assay with SK-MEL-2 melanoma. Also, the TGI in the assay with UACC-62 melanoma, in the assay on 786-0 renal, with HOP-62 NSCLC and in the assay with SK-MEL-5 melanoma was over 100 µM in each case.

For `Cc1nc2c(nc1C)C(=O)c1cc(O)ccc1C2=O`, the TGI was over 100 µM with NCI-H226 lung; over 67.3 µM in the assay on HL-60(TB) leukemia; over 100 µM with MOLT-4 leukemia; over 78 µM in the assay with UACC-257 melanoma; over 100 µM in the assay with HOP-92 NSCLC; over 100 µM in the assay with SK-MEL-2 melanoma. The TGI was 53.5 µM in the assay with UACC-62 melanoma, over 100 µM in the assay with 786-0 renal, over 100 µM in the assay on HOP-62 NSCLC and 29.6 µM with SK-MEL-5 melanoma.

Regarding `C[C@@H]1C[C@@H](O)[C@]2(O)O[C@@H]3C[C@@]4(C=O)[C@@H](CC[C@@H]5[C@@H]4CC[C@]4(C)[C@@H](C6=CC(=O)OC6)CC[C@]54O)C[C@H]3O[C@@H]2O1`, the GI50 in the assay with NCI-H226 lung is 0.188 µM and 0.0333 µM; in the assay on HL-60(TB) leukemia, 0.015 µM and 0.00692 µM; in the assay with MOLT-4 leukemia it was 0.00699 µM and 0.005 µM; with UACC-257 melanoma it was 0.0711 µM and 0.0291 µM; in the assay with HOP-92 NSCLC, 0.135 µM; with SK-MEL-2 melanoma, 0.052 µM and 0.0898 µM. The GI50 was 0.0515 µM and 0.0216 µM in the assay with UACC-62 melanoma; 0.0212 µM and 0.005 µM in the assay with 786-0 renal; 0.0143 µM and 0.005 µM in the assay on HOP-62 NSCLC; 0.0247 µM in the assay with SK-MEL-5 melanoma. Also, the TGI is 0.0857 µM and 0.529 µM and 0.116 µM with NCI-H226 lung; 0.0285 µM and 0.0322 µM and 0.0169 µM with HL-60(TB) leukemia; 0.118 µM and 0.266 µM and 0.122 µM with UACC-257 melanoma; 0.234 µM and 0.683 µM in the assay on HOP-92 NSCLC; 0.0465 µM and 0.213 µM and 0.0895 µM with UACC-62 melanoma; 0.0124 µM and 0.0611 µM and 0.0222 µM in the assay on 786-0 renal. Also, the TGI in the assay with HOP-62 NSCLC is 0.0576 µM and 0.067 µM and 0.0709 µM; in the assay on SK-MEL-5 melanoma it was 0.0303 µM and 0.055 µM and 0.0584 µM.

As to `CC(=O)O/C=C(/C=C/OC(C)=O)C(C/C=C(\C)C#CC=C(C)C)OC(C)=O` (stereo not drawn), the TGI in the assay with NCI-H226 lung was over 100 µM; with HL-60(TB) leukemia it was 42.4 µM; in the assay on MOLT-4 leukemia, over 100 µM; with UACC-257 melanoma, over 100 µM; with HOP-92 NSCLC, 91.3 µM; in the assay on SK-MEL-2 melanoma, over 100 µM. Besides, the TGI is 77.7 µM with UACC-62 melanoma, over 100 µM in the assay with 786-0 renal, over 100 µM in the assay with HOP-62 NSCLC and over 100 µM in the assay with SK-MEL-5 melanoma.

Take `O=C(O)CSc1n[nH]c(-c2ccc(O)cc2)n1`: the TGI with NCI-H226 lung, in the assay on HL-60(TB) leukemia, with MOLT-4 leukemia, in the assay with UACC-257 melanoma, with HOP-92 NSCLC and in the assay on SK-MEL-2 melanoma was over 100 µM throughout. Also, the TGI in the assay with UACC-62 melanoma, with 786-0 renal, in the assay with HOP-62 NSCLC and in the assay on SK-MEL-5 melanoma was over 100 µM in each case.
